Reference: paper PMC11864945 (Frontiers in Pharmacology, 2025)
Where two headings read alike, the source gives them in different places.

How the values were obtained:
[1] = stock solution in DMF, −20°C
Procedure: Individual stock solutions of PYR, PRA, FBT, FEN and OXF were prepared for standards and quality control samples in DMF at 1 mg/mL. IS stock solution was also prepared in DMF at 400 μg/mL. The mixed working solutions were obtained by mixing the stock solution in different volumes and then performing appropriate dilution in methanol: water (50:50, V/V). The IS working solution of 200 ng/mL was also prepared with DMF from the primary stock solution. […] The working solutions for the analytes and IS were stored at 4°C and brought to room temperature before use.
Stability experiments were conducted in working solutions of the analytes and IS for short term stability at 4°C and stock solutions for long term stability at −20°C, respectively. Peak area ratio responses (Analytes/IS) of stored solutions were compared with those of freshly prepared solutions. The acceptance criterion was ±10.0% deviation when comparing the values of fresh solutions.

[2] = 20 healthy beagle dogs, identical dose strength, ref Klausz et al., 2015, cited from earlier work
[3] = in vivo; details: beagle, dog, po
Procedure: (§1) Adaptive feeding and observation were carried out for 7 days before the bioequivalence study. Physical examination, blood routine and blood biochemical tests were performed the day before the trial to ensure the health of the dogs. […] The subjects were orally administered a single dose of test or reference formuations with 100 mL of water with a washout period of 2 weeks. Blood samples were collected into heparinized tubes at 0.00 (pre–dose), 0.17, 0.33, 0.67, 1.00, 1.50, 2.00, 2.50, 3.00, 4.00, 5.00, 6.00, 7.00, 8.00, 9.00, 10.00, 11.00, 12.00, 14.00, 24.00 and 30.00 h after oral administration. […] The number of blood collections for drug analysis was 21 samples in each study period. The collected blood samples were centrifuged in a pre–cooled centrifuge at 2,150 g for 10 min, and the separated plasma was transferred to a clean centrifuge tube and frozen in a −80°C refrigerator until analysis.
(§2) The pharmacokinetic parameters for the analytes were evaluated by non–compartmental analysis using Phoenix WinNonlin software version 8.1 (Certara Corporation, Radnor, PA, United States). The maximum plasma concentration (Cmax), the area under the plasma concentration-time curve from time zero to the last sampling time (AUC0–30), the area under the plasma concentration-time curve from time zero to infinity (AUC0–inf), as the primary target, and their geometric mean ratios (test/reference) using log transformed data were assessed to determine whether the formulations were pharmacokinetically equivalent.
(§3) The study was conducted as an open label, balanced, randomized, crossover, two–treatment, two–period, two–sequence and single–dose design to compare the bioavailability of PYR, PRA, FBT, FEN and OXF between two products in 38 healthy beagle dogs. Each subject received a tablet from the test product (Self–developed preparation) and a tablet from reference product (Drontal® Plus Flavor) under fasting conditions with a washout period of 2 weeks.

[4] = beagle, dog, in vivo
Procedure: as §1, §2, §3

[5] = Stability of the analytes in beagle dog plasma (bench top, refrigerator, freeze–thaw, autosampler, short and long term storage); assay type: physicochemical; details: for Mean stability sample ±SD: n = 5
Procedure: Stability experiments were conducted in working solutions of the analytes and IS for short term stability at 4°C and stock solutions for long term stability at −20°C, respectively. Peak area ratio responses (Analytes/IS) of stored solutions were compared with those of freshly prepared solutions. The acceptance criterion was ±10.0% deviation when comparing the values of fresh solutions. The stabilities of the analytes in beagle dog plasma were evaluated by analyzing five replicates at LQC and HQC levels. Types of stabilities were following as: bench top stability (room temperature), refrigerator stability (4°C), autosampler stability for processed samples (6°C), freeze–thaw stability (−80°C), short term stability (−20°C) and long term (–80°C) storage stability.

[6] = Bioequivalence / pharmacokinetic study of compound febantel tablets after single oral dose, plasma levels by UPLC–MS/MS; details: beagle, dog, 38 beagle dogs, fasting, mean ± SD; for AUC(0-inf): AUC0–inf; for k el: Kel (elimination rate constant); for half-life: t1/2 (elimination half–life)
Procedure: as §1, §2, §3

[7] = autosampler, 6°C, 55 h, processed plasma samples, HQC
[8] = autosampler, 6°C, 55 h, processed plasma samples, LQC
[9] = bench top, room temperature, 8 h, dog plasma, HQC (added 180 ng/mL PYR/OXF, 675 PRA, 90 FBT, 450 FEN)
[10] = bench top, room temperature, 8 h, dog plasma, HQC, % of nominal concentration
[11] = bench top, room temperature, 8 h, dog plasma, LQC (added 12 ng/mL PYR/OXF, 45 PRA, 6 FBT, 30 FEN)
[12] = bench top, room temperature, 8 h, dog plasma, LQC, % of nominal concentration
[13] = freeze–thaw after 3rd cycle at −80°C, dog plasma, HQC
[14] = freeze–thaw after 3rd cycle at −80°C, dog plasma, LQC
[15] = long term, −80°C, 120 days, dog plasma, HQC
[16] = long term, −80°C, 120 days, dog plasma, LQC
[17] = refrigerator, 4°C, 30 h, dog plasma, HQC
[18] = refrigerator, 4°C, 30 h, dog plasma, LQC
[19] = short term, −20°C, 48 h, dog plasma, HQC
[20] = short term, −20°C, 48 h, dog plasma, LQC
[21] = reference product (R), single oral tablet
[22] = test product (T), single oral tablet

| Compound | Accuracy [5, 7] | Mean stability sample ±SD [5, 7] | Accuracy [5, 8] | Mean stability sample ±SD [5, 8] | Mean stability sample ±SD [5, 9] | Accuracy [5, 10] | Mean stability sample ±SD [5, 11] | Accuracy [5, 12] | Accuracy [5, 13] | Mean stability sample ±SD [5, 13] | Accuracy [5, 14] | Mean stability sample ±SD [5, 14] | Accuracy [5, 15] | Mean stability sample ±SD [5, 15] | Accuracy [5, 16] | Mean stability sample ±SD [5, 16] | Accuracy [5, 17] | Mean stability sample ±SD [5, 17] | Accuracy [5, 18] | Mean stability sample ±SD [5, 18] | also measured |
| --- | --- | --- | --- | --- | --- | --- | --- | --- | --- | --- | --- | --- | --- | --- | --- | --- | --- | --- | --- | --- | --- |
| [2H]C([2H])([2H])OC(=O)Nc1nc2ccc(Sc3ccccc3)cc2[nH]1 [IS, Fenbendazole–D3] | – | – | – | – | – | – | – | – | – | – | – | – | – | – | – | – | – | – | – | – | Long–term stability of stock solution (time remained stable) [1]: 104 days |
| CN1CCCN=C1/C=C/c1cccs1 [Pyrantel, pyrantel] | 108.07% | 194.53 ± 3.27 ng/mL | 107.25% | 12.87 ± 0.28 ng/mL | 163.22 ± 1.45 ng/mL | 90.68% | 11.30 ± 0.66 ng/mL | 94.15% | 94.84% | 170.71 ± 4.98 ng/mL | 92.15% | 11.06 ± 0.55 ng/mL | 97.25% | 175.05 ± 5.76 ng/mL | 88.57% | 10.63 ± 0.11 ng/mL | 97.21% | 174.99 ± 6.96 ng/mL | 97.18% | 11.66 ± 0.93 ng/mL | Cmax ([2]; reference products): 81.1 ng/mL; Cmax ([2]; test products): 78.5 ng/mL; AUC(0-t) ([3]; AUC0–30): 423 ± 140 ng·h/mL; AUC(0-inf) ([3]; AUC0–inf): 489 ± 186 ng·h/mL; k el ([3]; Kel (elimination rate constant)): 5.28e-05 s⁻¹; Tmax ([3]; Tmax): 3.08 ± 0.98 h; half-life ([3]; t1/2 (elimination half–life)): 256 ± 122 min; GMR (Test/Reference) of AUC0–30 [4]: 110.18%; GMR (Test/Reference) of AUC0–inf [4]: 111.84%; GMR (Test/Reference) of Cmax [4]: 112.68%; AUC0–30 ([4]; po): 378.04 ± 102.58 ng·h/mL; AUC0–inf ([4]; po): 429.16 ± 117.30 ng·h/mL; Cmax ([4]; po): 69.17 ± 21.12 ng/mL; Kel (elimination rate constant) ([4]; po): 0.20 ± 0.08 h⁻¹; Tmax ([4]; po): 2.87 ± 1.06 h; t1/2 (elimination half–life) ([4]; po): 4.87 ± 4.38 h; Accuracy [5, 19]: 107.76%; Mean stability sample ±SD [5, 19]: 193.96 ± 8.82 ng/mL; Accuracy [5, 20]: 100.41%; Mean stability sample ±SD [5, 20]: 12.05 ± 0.92 ng/mL |
| COC(=O)Nc1nc2ccc([S+]([O-])c3ccccc3)cc2[nH]1 (centres unmarked) [Qxfendazole, oxfendazole] | 107.07% | 192.72 ± 8.41 ng/mL | 106.85% | 12.82 ± 0.85 ng/mL | 162.16 ± 2.99 ng/mL | 90.09% | 12.08 ± 1.02 ng/mL | 100.65% | 97.23% | 175.01 ± 5.08 ng/mL | 100.97% | 12.12 ± 0.84 ng/mL | 97.64% | 175.76 ± 5.23 ng/mL | 93.96% | 11.28 ± 0.62 ng/mL | 96.84% | 174.31 ± 5.37 ng/mL | 95.50% | 11.46 ± 0.74 ng/mL | Accuracy [5, 19]: 105.41%; Mean stability sample ±SD [5, 19]: 189.73 ± 8.17 ng/mL; Accuracy [5, 20]: 98.29%; Mean stability sample ±SD [5, 20]: 11.80 ± 0.79 ng/mL; AUC(0-t) ([6]; AUC0–30, reference product (R), single oral tablet): 2100 ng·h/mL; AUC(0-t) ([6]; AUC0–30, test product (T), single oral tablet): 1790 ng·h/mL; AUC(0-inf) [6, 21]: 2550 ng·h/mL; AUC(0-inf) [6, 22]: 1910 ng·h/mL; Cmax ([6]; reference product (R, Drontal Plus), single oral tablet): 224 ± 112 ng/mL; Cmax ([6]; test product (T), single oral tablet (150 mg FBT, 144 mg pyrantel pamoate, 50 mg PRA)): 184 ± 95.7 ng/mL; k el [6, 21]: 6.11e-05 s⁻¹; k el [6, 22]: 6.67e-05 s⁻¹; Tmax [6, 21]: 6.97 ± 3.47 h; Tmax [6, 22]: 7.08 ± 2.65 h; half-life [6, 21]: 250 ± 147 min; half-life [6, 22]: 230 ± 182 min |
